Data on eleven compounds can be found in patent US20160355530A1, “HEPATITIS C INHIBITORS AND USES THEREOF” (AbbVie Inc., priority 2010, published 2016).

For experiment [1], the target named is T1, HCV NS5B polymerase 1a-H77 (Hepatitis C virus genotype 1a, UniProt P27958).
T1 construct: six-histidine tag; made in house; host or cells: E. coli
The experiment is described as follows: biochemical. Further details: species or system HCV genotype 1a. The method in brief: (§1)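 Incorporation of [3H]UTP (0.284 μM), alongside 20 μM each CTP and ATP, into RNA copied from a 5 nM 2.1 kb genotype 1b negative-strand template was measured after 3 h at 30° C using purified His-tagged NS5B truncated at residue 570. Product was spermine-precipitated, filtered and scintillation-counted; nonlinear regression gave IC50.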

Experiment [2] has as its target T2, HCV NS5B polymerase 1a-H77-C316Y (Hepatitis C virus genotype 1a, UniProt P27958, C2736Y).
T2 construct: six-histidine tag; made in house; host or cells: E. coli
Nature of the experiment: biochemical. Further details: species or system HCV genotype 1a. The method in brief: as §1

For experiment [3], the system named is HCV NS5B polymerase 1a-H77-C316Y. Nature of the experiment: biochemical. Also on record: species or system HCV genotype 1a. To be noted: ratio of enzyme IC50s, 1a H77-C316Y / 1a H77. The method in brief:
as §1

The target of experiment [4] is T3, HCV NS5B polymerase 1b BK strain (Hepatitis C virus genotype 1b, UniProt P26663).
T3 construct: six-histidine tag; made in house; host or cells: E. coli
The experiment is described as follows: HCV NS5B polymerase enzymatic inhibition assay, strain 1b BK. The format is biochemical. The method in brief: as §1

Experiment [5] relates to HCV 1a-H77 subgenomic replicon. The experiment is described as follows: microbe, parasite or virus in culture. The format is cell-based, HCV genotype 1a. To be noted: Hepatitis C virus, stable replicon.
The test system of experiment [6] is HCV 1b-BB7 subgenomic replicon. Nature of the experiment: microbe, parasite or virus in culture. To be noted: Hepatitis C virus, stable replicon. The format is cell-based, HCV genotype 1b.
The mark [7] stands for this setting: enzyme, strain 1a H77, read-out: HCV Polymerase Strain 1a H77 IC50.
Setting [8] is: enzyme, strain 1b BK, read-out: HCV Polymerase Strain 1b BK IC50.
[9] abbreviates: 5% FBS, absence of human plasma, read-out: Stable Replicon 1a H77 5% FBS EC50.
Setting [10] is: strain 1a H77, 5% FBS + 40% human plasma, read-out: 1a H77 5% FBS + 40% Human Plasma EC50.
Setting [11] is: strain 1a H77, 5% FBS, no human plasma, read-out: 1a H77 5% FBS EC50.
The mark [12] stands for this setting: strain 1a H77, 5% FBS, read-out: 1a H77 5% FBS EC50.
Setting [13] is: strain 1b BB7, 5% FBS + 40% human plasma, read-out: 1b BB7 5% FBS + 40% Human Plasma EC50.
Where [14] appears, read: strain 1b BB7, 5% FBS, no human plasma, read-out: 1b BB7 5% FBS EC50.
The mark [15] stands for this setting: strain 1b BB7, 5% FBS, read-out: 1b BB7 5% FBS EC50.

SMILES strings stand for the structures. Like-named read-outs stand apart in the source and are kept apart here.

T2 sequence (P27958 2421-2990 C2736Y): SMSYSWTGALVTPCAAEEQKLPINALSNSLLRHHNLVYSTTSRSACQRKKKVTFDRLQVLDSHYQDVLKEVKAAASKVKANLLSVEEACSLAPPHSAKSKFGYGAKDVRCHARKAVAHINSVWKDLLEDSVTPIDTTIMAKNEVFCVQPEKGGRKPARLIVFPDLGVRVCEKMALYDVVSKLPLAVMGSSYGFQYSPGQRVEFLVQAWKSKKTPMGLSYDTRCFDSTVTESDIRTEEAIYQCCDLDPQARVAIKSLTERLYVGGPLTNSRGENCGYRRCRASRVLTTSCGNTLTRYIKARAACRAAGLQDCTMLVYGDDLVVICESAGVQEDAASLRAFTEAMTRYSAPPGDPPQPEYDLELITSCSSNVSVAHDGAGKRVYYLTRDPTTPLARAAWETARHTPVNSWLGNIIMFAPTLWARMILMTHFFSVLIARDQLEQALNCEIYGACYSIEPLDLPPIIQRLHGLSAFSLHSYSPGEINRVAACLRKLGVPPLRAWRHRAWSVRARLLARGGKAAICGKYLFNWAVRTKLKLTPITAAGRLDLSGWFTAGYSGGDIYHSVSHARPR
T1 sequence (P27958 2421-2990): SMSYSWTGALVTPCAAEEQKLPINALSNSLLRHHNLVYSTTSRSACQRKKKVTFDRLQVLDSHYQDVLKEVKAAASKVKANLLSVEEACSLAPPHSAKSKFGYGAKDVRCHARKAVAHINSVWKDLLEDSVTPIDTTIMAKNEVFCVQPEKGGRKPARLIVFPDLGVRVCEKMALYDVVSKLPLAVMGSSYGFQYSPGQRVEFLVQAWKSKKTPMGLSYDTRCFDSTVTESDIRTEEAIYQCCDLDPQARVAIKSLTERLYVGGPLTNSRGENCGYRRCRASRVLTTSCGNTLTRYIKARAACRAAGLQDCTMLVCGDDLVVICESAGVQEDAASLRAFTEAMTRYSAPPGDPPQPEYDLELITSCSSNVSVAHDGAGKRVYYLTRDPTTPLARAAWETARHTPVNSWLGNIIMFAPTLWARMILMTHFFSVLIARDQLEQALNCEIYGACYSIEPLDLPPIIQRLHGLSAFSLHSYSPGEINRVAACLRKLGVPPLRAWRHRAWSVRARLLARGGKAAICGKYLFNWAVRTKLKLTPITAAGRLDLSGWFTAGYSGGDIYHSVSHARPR
T3 sequence (P26663 2420-2989): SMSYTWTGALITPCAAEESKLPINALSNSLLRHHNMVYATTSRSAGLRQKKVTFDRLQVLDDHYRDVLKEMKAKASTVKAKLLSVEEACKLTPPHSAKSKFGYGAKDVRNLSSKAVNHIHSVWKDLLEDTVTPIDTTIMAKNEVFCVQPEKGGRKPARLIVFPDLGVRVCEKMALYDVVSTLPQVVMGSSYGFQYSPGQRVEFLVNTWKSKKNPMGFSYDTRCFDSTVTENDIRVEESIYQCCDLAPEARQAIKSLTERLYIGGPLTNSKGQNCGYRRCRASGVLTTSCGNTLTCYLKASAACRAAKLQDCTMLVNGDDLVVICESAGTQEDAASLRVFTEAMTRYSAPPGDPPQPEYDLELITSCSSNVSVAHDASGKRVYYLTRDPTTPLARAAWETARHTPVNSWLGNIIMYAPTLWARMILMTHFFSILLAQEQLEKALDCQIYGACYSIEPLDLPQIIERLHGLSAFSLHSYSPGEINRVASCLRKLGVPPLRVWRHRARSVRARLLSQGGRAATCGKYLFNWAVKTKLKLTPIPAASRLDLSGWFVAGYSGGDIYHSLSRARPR

On to `CC(C)=CCCN(c1cc2oc(-c3ccc(F)cc3)c(-c3ncc[nH]3)c2cc1C1CC1)S(C)(=O)=O` [Example 76, N-[5-cyclopropyl-2-(4-fluorophenyl)-3-(1H-imidazol-2-yl)-1-benzofuran-6-yl]-N-(4-methylpent-3-en-1-yl)methanesulfonamide], for which the IC50 in experiment [1] (setting [7]) came out at 5.9 nM; in experiment [2], 131 nM; in experiment [4] (setting [8]), 23 nM. Moreover, in experiment [3], the “C316Y/1a Fold Resistance” value turned out to be 22 fold. In addition, the EC50 in experiment [5] (setting [9]) was 48.5 nM; in experiment [5] (setting [10]), 3960 nM; in experiment [5] (setting [11]), 48.5 nM; in experiment [5] (setting [12]), 48.5 nM; in experiment [6] (setting [13]), 661 nM; in experiment [6] (setting [14]), 26.9 nM. In experiment [6] (setting [15]), the EC50 stood at 26.9 nM.

As to `CS(=O)(=O)N(CCCC(=O)N1CCOCC1)c1cc2oc(-c3ccc(F)cc3)c(-c3ncc[nH]3)c2cc1C1CC1` [Example 103, N-[5-cyclopropyl-2-(4-fluorophenyl)-3-(1H-imidazol-2-yl)-1-benzofuran-6-yl]-N-[4-(morpholin-4-yl)-4-oxobutyl]methanesulfonamide], the values for the IC50 in experiment [1] (setting [7]), in experiment [2] and in experiment [4] (setting [8]) were 7.9 nM, 400 nM and 55 nM, respectively. In experiment [3], the “C316Y/1a Fold Resistance” value turned out to be 50 fold. The EC50 in experiment [5] (setting [9]) turned out to be 44.6 nM; in experiment [5] (setting [10]), 563 nM; in experiment [5] (setting [11]), 44.6 nM; in experiment [5] (setting [12]), 44.6 nM; in experiment [6] (setting [13]), 114 nM; in experiment [6] (setting [14]), 13.9 nM. Also, in experiment [6] (setting [15]), the EC50 is 13.9 nM.

Consider `CS(=O)(=O)N(CCOc1ccccc1)c1cc2oc(-c3ccc(F)cc3)c(-c3ncc[nH]3)c2cc1C1CC1` [Example 43, N-[5-cyclopropyl-2-(4-fluorophenyl)-3-(1H-imidazol-2-yl)-1-benzofuran-6-yl]-N-(2-phenoxyethyl)methanesulfonamide], for which the values for the half-inhibitory concentration (IC50) in experiment [1] (setting [7]), in experiment [2] and in experiment [4] (setting [8]) were 6.5 nM, 1000 nM and 25 nM, respectively. Moreover, the “C316Y/1a Fold Resistance” value in experiment [3] was determined as 154 fold. Moreover, the EC50 in experiment [5] (setting [9]) came out at 269 nM; in experiment [5] (setting [10]) it was 5210 nM; in experiment [5] (setting [11]), 269 nM; in experiment [5] (setting [12]) it was 269 nM; in experiment [6] (setting [13]), 616 nM; in experiment [6] (setting [14]), 80 nM. In addition, the EC50 in experiment [6] (setting [15]) came to 80 nM.

For the compound `CS(=O)(=O)N(CCCN)c1cc2oc(-c3ccc(F)cc3)c(-c3ncc[nH]3)c2cc1C1CC1` [Example 112, N-(3-aminopropyl)-N-[5-cyclopropyl-2-(4-fluorophenyl)-3-(1H-imidazol-2-yl)-1-benzofuran-6-yl]methanesulfonamide], the IC50 was determined as 10.6 nM in experiment [1] (setting [7]), 868 nM in experiment [2] and 51 nM in experiment [4] (setting [8]). In addition, the “C316Y/1a Fold Resistance” value in experiment [3] is 82 fold. The EC50 in experiment [5] (setting [9]) is 262 nM; in experiment [5] (setting [10]), 1030 nM; in experiment [5] (setting [11]) it was 262 nM; in experiment [5] (setting [12]), 262 nM; in experiment [6] (setting [13]), 101 nM; in experiment [6] (setting [14]) it was 34 nM. Moreover, the EC50 in experiment [6] (setting [15]) was determined as 34 nM.

Turning to `CS(=O)(=O)N(CCN)c1cc2oc(-c3ccc(F)cc3)c(-c3ncc[nH]3)c2cc1C1CC1` [Example 111, N-(2-aminoethyl)-N-[5-cyclopropyl-2-(4-fluorophenyl)-3-(1H-imidazol-2-yl)-1-benzofuran-6-yl]methanesulfonamide], the IC50 in experiment [1] (setting [7]) worked out at 9.9 nM; in experiment [2] it was 2000 nM; in experiment [4] (setting [8]), 111 nM. In addition, the “C316Y/1a Fold Resistance” value in experiment [3] turned out to be 201 fold. Moreover, the EC50 in experiment [5] (setting [9]) stood at 152 nM; in experiment [5] (setting [10]) it was 1000 nM; in experiment [5] (setting [11]), 152 nM; in experiment [5] (setting [12]), 152 nM; in experiment [6] (setting [13]), 92 nM; in experiment [6] (setting [14]) it was 40.4 nM. Besides, the EC50 in experiment [6] (setting [15]) stood at 40.4 nM.

For `CS(=O)(=O)N(CC1CCCCC1)c1cc2oc(-c3ccc(F)cc3)c(-c3ncc[nH]3)c2cc1C1CC1` [Example 45, N-(cyclohexylmethyl)-N-[5-cyclopropyl-2-(4-fluorophenyl)-3-(1H-imidazol-2-yl)-1-benzofuran-6-yl]methanesulfonamide], the IC50 amounted to 7.5 nM in experiment [1] (setting [7]), 295 nM in experiment [2] and 110 nM in experiment [4] (setting [8]). Besides, the “C316Y/1a Fold Resistance” value in experiment [3] worked out at 39 fold. Moreover, the EC50 in experiment [5] (setting [9]) is 87.4 nM; in experiment [5] (setting [10]), 3010 nM; in experiment [5] (setting [11]), 87.4 nM; in experiment [5] (setting [12]), 87.4 nM; in experiment [6] (setting [13]), 4410 nM; in experiment [6] (setting [14]), 180 nM. For the same compound, in experiment [6] (setting [15]), the EC50 was determined as 180 nM.

`CS(=O)(=O)N(Cc1cc(O)no1)c1cc2oc(-c3ccc(F)cc3)c(-c3ncc[nH]3)c2cc1C1CC1` [Example 190, N-[5-cyclopropyl-2-(4-fluorophenyl)-3-(1H-imidazol-2-yl)-1-benzofuran-6-yl]-N-[(3-hydroxy-1,2-oxazol-5-yl)methyl]methanesulfonamide]: the values for the IC50 in experiment [1], in experiment [2] and in experiment [4] were 4.5 nM, 500 nM and 26 nM, respectively. Besides, the “C316Y/1a Fold Resistance” value in experiment [3] amounted to 112 fold. Further, the EC50 in experiment [5] (setting [9]) stood at 263 nM; in experiment [5] (setting [10]), 3460 nM; in experiment [5] (setting [12]), 263 nM; in experiment [6] (setting [13]) it was 1370 nM; in experiment [6] (setting [15]) it was 116 nM.

Consider `Cc1ncsc1CCN(c1cc2oc(-c3ccc(F)cc3)c(-c3ncc[nH]3)c2cc1C1CC1)S(C)(=O)=O` [Example 78, N-[5-cyclopropyl-2-(4-fluorophenyl)-3-(1H-imidazol-2-yl)-1-benzofuran-6-yl]-N-[2-(4-methyl-1,3-thiazol-5-yl)ethyl]methanesulfonamide], for which the IC50 in experiment [1] (setting [7]) was 4 nM; in experiment [2], 107 nM; in experiment [4] (setting [8]), 13 nM. Also, the “C316Y/1a Fold Resistance” value in experiment [3] is on record as 27 fold. For the same compound, the EC50 in experiment [5] (setting [9]) came to 38.5 nM; in experiment [5] (setting [10]), 1060 nM; in experiment [5] (setting [11]), 38.5 nM; in experiment [5] (setting [12]), 38.5 nM; in experiment [6] (setting [13]), 514 nM; in experiment [6] (setting [14]), 15.7 nM. Besides, the EC50 in experiment [6] (setting [15]) came out at 15.7 nM.

With `COc1ccc(CN(c2cc3oc(-c4ccc(F)cc4)c(-c4ncc[nH]4)c3cc2OC(C)C)S(C)(=O)=O)cc1` [Example 170, N-[2-(4-fluorophenyl)-3-(1H-imidazol-2-yl)-5-isopropoxy-1-benzofuran-6-yl]-N-(4-methoxybenzyl)methanesulfonamide], the IC50 was 36 nM in experiment [1] (setting [7]), 20000 nM in experiment [2] and 338 nM in experiment [4] (setting [8]). Also, the “C316Y/1a Fold Resistance” value in experiment [3] amounted to 556 fold. Further, the EC50 in experiment [5] (setting [9]) amounted to 540 nM; in experiment [5] (setting [11]), 540 nM; in experiment [5] (setting [12]), 540 nM; in experiment [6] (setting [14]), 121 nM; in experiment [6] (setting [15]), 121 nM.

In the case of `CS(=O)(=O)N(CCCC(=O)N1CCCCC1)c1cc2oc(-c3ccc(F)cc3)c(-c3ncc[nH]3)c2cc1C1CC1` [Example 104, N-[5-cyclopropyl-2-(4-fluorophenyl)-3-(1H-imidazol-2-yl)-1-benzofuran-6-yl]-N-[4-oxo-4-(piperidin-1-yl)butyl]methanesulfonamide], the IC50 is 6.9 nM in experiment [1] (setting [7]), 180 nM in experiment [2] and 52 nM in experiment [4] (setting [8]). Also, the “C316Y/1a Fold Resistance” value in experiment [3] is reported as 26 fold. For the same compound, the concentration for a half-maximal effect (EC50) stood at 31.9 nM in experiment [5] (setting [9]); 502 nM in experiment [5] (setting [10]); 31.9 nM in experiment [5] (setting [11]); 31.9 nM in experiment [5] (setting [12]); 268 nM in experiment [6] (setting [13]); 13.3 nM in experiment [6] (setting [14]). Further, the EC50 in experiment [6] (setting [15]) amounted to 13.3 nM.

For `CS(=O)(=O)N(Cc1cnc(-c2c[nH]c(=O)[nH]c2=O)s1)c1ccc2c(-c3ncc[nH]3)c(-c3ccccc3)oc2c1` [Example 29, N-{[2-(2,4-dioxo-1,2,3,4-tetrahydropyrimidin-5-yl)-1,3-thiazol-5-yl]methyl}-N-[3-(1H-imidazol-2-yl)-2-phenyl-1-benzofuran-6-yl]methanesulfonamide], the IC50 was 3 nM in experiment [1] (setting [7]), 7 nM in experiment [2] and 9 nM in experiment [4] (setting [8]). The “C316Y/1a Fold Resistance” value in experiment [3] amounted to 2 fold. Besides, the EC50 was found to be 1000 nM in experiment [5] (setting [9]); 10000 nM in experiment [5] (setting [10]); 1000 nM in experiment [5] (setting [11]); 1000 nM in experiment [5] (setting [12]); 9830 nM in experiment [6] (setting [13]); 207 nM in experiment [6] (setting [14]). Also, the EC50 in experiment [6] (setting [15]) is 207 nM.
